What follows are compounds tested against 5-HT2A receptors (UniProt P14842) (assay: in-vitro affinity to 5-HT2A receptors, [3H]ketanserine displacement (Example A1)).
Type: binding
Excerpt: The 5-HT2A receptors are exposed both to [^3H]ketanserine (a substance known for its affinity to the receptor) and also to the test compound. The decrease in the affinity of [^3H]ketanserine to the receptor is an indication of the affinity of the test substance to the 5-HT2A receptor.

| IC50 [µM] | SMILES |
| --- | --- |
| 0.013 | CN1CCN(Cc2cnn(-c3ccc(-c4ccc(F)cc4)cc3)c2-c2c(F)cccc2F)CC1 [Example 573, 1-[5-(2,6-Difluorophenyl)-1-(4′-fluorobiphenyl-4-yl)-1H-pyrazol-4-ylmethyl]-4-methylpiperazine] |
| 0.091 | COc1cccc(-c2c(CN3CCC(O)C3)cnn2-c2ccc(-c3ccc(F)cc3)cc2)c1 (stereo not drawn) [Example 665, 1-[1-(4′-Fluorobiphenyl-4-yl)-5-(3-methoxyphenyl)-1H-pyrazol-4-ylmethyl]pyrrolidin-3-ol] |
| 0.078 | CCN(CC)Cc1cnn(-c2ccc(-c3ccc(F)cc3)cc2)c1-c1ccoc1 [Example 662, Diethyl-[1-(4′-fluorobiphenyl-4-yl)-5-furan-3-yl-1H-pyrazol-4-ylmethyl]amine] |
| 0.037 | CN1CCN(Cc2cnn(-c3ccc(-c4ccc(F)cc4)cc3)c2-c2ccncc2)CC1 [Example 629, 1-[1-(4′-Fluorobiphenyl-4-yl)-5-pyridin-4-yl-1H-pyrazol-4-ylmethyl]-4-methylpiperazine] |
| 0.29 | O=C1NCCCCC1NCc1cnn(-c2ccc(-c3ccc(F)cc3)cc2)c1-c1ccco1 (stereo not drawn) [Example 694, 3-{[1-(4′-Fluorobiphenyl-4-yl)-5-furan-2-yl-1H-pyrazol-4-ylmethyl]amino}azepan-2-one] |
| 0.17 | OCC(O)CNCc1cnn(-c2ccc(-c3ccc(F)cc3)cc2)c1-c1ccco1 (stereo not drawn) [Example 680, 3-{[1-(4′-Fluorobiphenyl-4-yl)-5-furan-2-yl-1H-pyrazol-4-ylmethyl]amino}propane-1,2-diol] |
| 0.42 | COc1cccc(-c2c(CN3CCC(N4CCCC4)CC3)cnn2-c2ccc(-c3ccc(F)cc3)cc2)c1 [Example 698, 1-[1-(4′-Fluorobiphenyl-4-yl)-5-(3-methoxyphenyl)-1H-pyrazol-4-ylmethyl]-4-pyrrolidin-1-ylpiperidine] |
| 0.047 | CCC(CO)NCc1cnn(-c2ccc(-c3ccc(F)cc3)cc2)c1-c1ccco1 (stereo not drawn) [Example 642, 2-{[1-(4′-Fluorobiphenyl-4-yl)-5-furan-2-yl-1H-pyrazol-4-ylmethyl]amino}butan-1-ol] |
| 0.45 | COc1ccc(-c2ccc(-n3ncc(CN(Cc4nccn4C)Cc4nccn4C)c3-c3ccco3)cc2)cc1 [Example 700, [5-Furan-2-yl-1-(4′-methoxybiphenyl-4-yl)-1H-pyrazol-4-ylmethyl]bis-(1-methyl-1H-imidazol-2-ylmethyl)amine] |
| 0.24 | Cc1noc(C)c1-c1c(CN2CCC(O)C2)cnn1-c1ccc(-c2ccc(F)cc2)cc1 (stereo not drawn) [Example 690, 1-[5-(3,5-Dimethylisoxazol-4-yl)-1-(4′-fluorobiphenyl-4-yl)-1H-pyrazol-4-ylmethyl]pyrrolidin-3-ol] |
| 0.011 | Fc1ccc(-c2ccc(-n3ncc(CNC4CCCC4)c3-c3ccco3)cc2)cc1 [Example 568, Cyclopentyl-[1-(4′-fluorobiphenyl-4-yl)-5-furan-2-yl-1H-pyrazol-4-ylmethyl]amine] |
| 0.074 | CN1CCN(Cc2cnn(-c3ccc(-c4ccc(F)cc4)cc3)c2-n2cccc2)CC1 [Example 658, 1-[1-(4′-Fluorobiphenyl-4-yl)-5-pyrrol-1-yl-1H-pyrazol-4-ylmethyl]-4-methylpiperazine] |
| 0.024 | COc1cccc(-c2c(CN3CCC(O)C3)cnn2-c2ccc(-c3ccc(F)cc3)cc2)c1 (stereo not drawn) [Example 598, 1-[1-(4′-Fluorobiphenyl-4-yl)-5-(3-methoxyphenyl)-1H-pyrazol-4-ylmethyl]pyrrolidin-3-ol] |
| 0.095 | CN(CCC#N)Cc1cnn(-c2ccc(-c3ccc(F)cc3)cc2)c1-c1ccco1 [Example 669, 3-{[1-(4′-Fluorobiphenyl-4-yl)-5-furan-2-yl-1H-pyrazol-4-ylmethyl]methylamino}propionitrile] |
| 0.036 | CC(C)CCNCc1cnn(-c2ccc(-c3ccc(F)cc3)cc2)c1-c1ccco1 [Example 628, [1-(4′-Fluorobiphenyl-4-yl)-5-furan-2-yl-1H-pyrazol-4-ylmethyl]-(3-methylbutyl)amine] |
| 0.054 | CN1CCN(Cc2cnn(-c3ccc(-c4ccc(C#N)s4)cc3)c2-c2ccccc2F)CC1 [Example 649, 5-{4-[5-(2-Fluorophenyl)-4-(4-methylpiperazin-1-ylmethyl)pyrazol-1-yl]phenyl}thiophene-2-carbonitrile] |
| 0.13 | CCN(CC)Cc1cnn(-c2ccc(-c3ccc(F)cc3)cc2)c1-c1cccc(OC)c1 [Example 676, Diethyl-[1-(4′-fluorobiphenyl-4-yl)-5-(3-methoxyphenyl)-1H-pyrazol-4-ylmethyl]amine] |
| 0.093 | CC#Cc1ccc(-c2ccc(-n3ncc(CN4CCN(C)CC4)c3-c3ccccc3F)cc2)c(F)c1 [Example 667, 1-[5-(2-Fluorophenyl)-1-(2′-fluoro-4′-prop-1-ynylbiphenyl-4-yl)-1H-pyrazol-4-ylmethyl]-4-methylpiperazine] |

Further lines, the compound ahead of its results:

| SMILES | IC50 [µM] |
| --- | --- |
| COc1cccc(-c2c(CN(C)C)cnn2-c2ccc(-c3ccc(F)cc3)cc2)c1 [Example 592, [1-(4′-Fluorobiphenyl-4-yl)-5-(3-methoxyphenyl)-1H-pyrazol-4-ylmethyl]dimethylamine] | 0.02 |
| CN1CCN(Cc2cnn(-c3ccc(-c4ccc5c(c4)OCCO5)cc3)c2-c2ccco2)CC1 [Example 535, 1-{1-[4-(2,3-Dihydrobenzo-1,4-dioxin-6-yl)phenyl]-5-furan-2-yl-1H-pyrazol-4-ylmethyl}-4-methylpiperazine] | 0.0023 |
| CN(C)Cc1cnn(-c2ccc(-c3ccc(F)cc3)cc2)c1-c1ccoc1 [Example 576, [1-(4′-Fluorobiphenyl-4-yl)-5-furan-3-yl-1H-pyrazol-4-ylmethyl]dimethylamine] | 0.016 |
| OC1CCN(Cc2cnn(-c3ccc(-c4ccc(F)cc4)cc3)c2-c2cccc(Cl)c2)C1 (stereo not drawn) [Example 618, 1-[5-(3-Chlorophenyl)-1-(4′-fluorobiphenyl-4-yl)-1H-pyrazol-4-ylmethyl]pyrrolidin-3-ol] | 0.033 |
| CN1CCN(Cc2cnn(-c3ccc(-c4ccc5c(c4)OCO5)cc3)c2-c2ccco2)CC1 [Example 550, 1-[1-(4-Benzo-1,3-dioxol-5-ylphenyl)-5-furan-2-yl-1H-pyrazol-4-ylmethyl]-4-methylpiperazine] | 0.0058 |
| OC1CCN(Cc2cnn(-c3ccc(-c4ccc(F)cc4)cc3)c2-c2ccoc2)C1 (stereo not drawn) [Example 670, 1-[1-(4′-Fluorobiphenyl-4-yl)-5-furan-3-yl-1H-pyrazol-4-ylmethyl]pyrrolidin-3-ol] | 0.096 |
| Fc1ccc(-c2ccc(-n3ncc(CN4CCC(N5CCCC5)CC4)c3-c3ccoc3)cc2)cc1 [Example 692, 1-[1-(4′-Fluorobiphenyl-4-yl)-5-furan-3-yl-1H-pyrazol-4-ylmethyl]-4-pyrrolidin-1-ylpiperidine] | 0.26 |
| NC1CCN(Cc2cnn(-c3ccc(-c4ccc5c(c4)OCCO5)cc3)c2-c2ccco2)CC1 [Example 652, 1-{1-[4-(2,3-Dihydrobenzo-1,4-dioxin-6-yl)phenyl]-5-furan-2-yl-1H-pyrazol-4-ylmethyl}piperidin-4-ylamine] | 0.055 |
| Fc1ccc(CCN2CCC(NCc3cnn(-c4ccc(-c5ccc(F)cc5)cc4)c3-c3ccco3)C2)cc1 (stereo not drawn) [Example 581, [1-(4′-Fluorobiphenyl-4-yl)-5-furan-2-yl-1H-pyrazol-4-ylmethyl]-{1-[2-(4-fluorophenyl)ethyl]pyrrolidin-3-yl}amine] | 0.017 |
| Cc1nn(-c2ccccc2)c(C)c1CN1CCN(C(=O)[C@]2(C)CC[C@@H](C(=O)O)C2(C)C)CC1 [Example 687] | 0.21 |
| Fc1ccc(-c2ccc(-n3ncc(CN4CCN(CCc5ccc(F)cc5F)CC4)c3-c3cccc(Cl)c3)cc2)cc1 [Example 683, 1-[5-(3-Chlorophenyl)-1-(4′-fluorobiphenyl-4-yl)-1H-pyrazol-4-ylmethyl]-4-[2-(2,4-difluorophenyl)ethyl]piperazine] | 0.19 |
| COc1ccc(-c2ccc(-n3ncc(CNCc4cc5ccccc5n4C)c3-c3ccco3)cc2)cc1 [Example 695, [5-Furan-2-yl-1-(4′-methoxybiphenyl-4-yl)-1H-pyrazol-4-ylmethyl]-(1-methyl-1H-indol-2-ylmethyl)amine] | 0.3 |
| CCN1CCN(Cc2cnn(-c3ccc(-c4ccc(F)cc4)cc3)c2-c2cccc(Cl)c2)CC1 [Example 650, 1-[5-(3-Chlorophenyl)-1-(4′-fluorobiphenyl-4-yl)-1H-pyrazol-4-ylmethyl]-4-ethylpiperazine] | 0.054 |
| CC(C)(C)OC(=O)N1CCN(Cc2cnn(-c3ccc(-c4ccc5c(c4)OCCO5)cc3)c2-c2ccco2)CC1 [Example 572, tert-Butyl 4-{1-[4-(2,3-dihydrobenzo-1,4-dioxin-6-yl)phenyl]-5-furan-2-yl-1H-pyrazol-4-ylmethyl}piperazine-1-carboxylate] | 0.012 |
| COc1ccc(-c2ccc(-n3ncc(CNCc4nccs4)c3-c3ccco3)cc2)cc1 [Example 688, [5-Furan-2-yl-1-(4′-methoxybiphenyl-4-yl)-1H-pyrazol-4-ylmethyl]thiazol-2-ylmethylamine] | 0.22 |
| Fc1ccc(-c2ccc(-n3ncc(CNC4CN5CCC4CC5)c3-c3ccco3)cc2)cc1 (stereo not drawn) [Example 681, (1-Azabicyclo[2.2.2]oct-3-yl)-[1-(4′-fluorobiphenyl-4-yl)-5-furan-2-yl-1H-pyrazol-4-ylmethyl]amine] | 0.18 |

These compounds were tested against T1, 5 HT2C receptor (Homo sapiens, UniProt P28335) (assay: affinity to the 5 HT2C receptor).
T1 sequence (P28335 33-458): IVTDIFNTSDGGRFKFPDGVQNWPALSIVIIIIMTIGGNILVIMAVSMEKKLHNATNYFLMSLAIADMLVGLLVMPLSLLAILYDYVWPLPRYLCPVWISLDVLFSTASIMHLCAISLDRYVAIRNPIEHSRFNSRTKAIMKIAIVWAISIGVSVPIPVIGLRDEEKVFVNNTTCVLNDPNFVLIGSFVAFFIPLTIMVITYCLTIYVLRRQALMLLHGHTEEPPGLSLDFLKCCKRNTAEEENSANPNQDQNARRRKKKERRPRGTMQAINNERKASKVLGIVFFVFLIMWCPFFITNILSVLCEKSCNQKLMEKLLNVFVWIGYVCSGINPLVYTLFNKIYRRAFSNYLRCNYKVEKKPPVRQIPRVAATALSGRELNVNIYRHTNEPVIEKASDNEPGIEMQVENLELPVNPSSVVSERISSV
Type: binding

| SMILES | IC50 [µM] |
| --- | --- |
| COc1cccc(-c2c(CN(C)C)cnn2-c2ccc(-c3ccc(F)cc3)cc2)c1 [Example 592, [1-(4′-Fluorobiphenyl-4-yl)-5-(3-methoxyphenyl)-1H-pyrazol-4-ylmethyl]dimethylamine] | 0.51 |
| CN1CCN(Cc2cnn(-c3ccc(-c4ccc5c(c4)OCCO5)cc3)c2-c2ccco2)CC1 [Example 535, 1-{1-[4-(2,3-Dihydrobenzo-1,4-dioxin-6-yl)phenyl]-5-furan-2-yl-1H-pyrazol-4-ylmethyl}-4-methylpiperazine] | 0.35 |
| CN(C)Cc1cnn(-c2ccc(-c3ccc(F)cc3)cc2)c1-c1ccoc1 [Example 576, [1-(4′-Fluorobiphenyl-4-yl)-5-furan-3-yl-1H-pyrazol-4-ylmethyl]dimethylamine] | 0.18 |
| OC1CCN(Cc2cnn(-c3ccc(-c4ccc(F)cc4)cc3)c2-c2cccc(Cl)c2)C1 (stereo not drawn) [Example 618, 1-[5-(3-Chlorophenyl)-1-(4′-fluorobiphenyl-4-yl)-1H-pyrazol-4-ylmethyl]pyrrolidin-3-ol] | 1 |
| CN1CCN(Cc2cnn(-c3ccc(-c4ccc5c(c4)OCO5)cc3)c2-c2ccco2)CC1 [Example 550, 1-[1-(4-Benzo-1,3-dioxol-5-ylphenyl)-5-furan-2-yl-1H-pyrazol-4-ylmethyl]-4-methylpiperazine] | 0.17 |

— patent US7842695B2, “Substituted pyrazole compounds” (Merck Patent GmbH, priority 2003, dated 2010)
